Results taken from patent US9693997B2, “Antiviral compounds” (priority 2013, dated 2017).
Structures can show the parent of a compound that is named as a salt.

What was measured:
Assay in all cases: microbe, parasite or virus in culture
[1] = tested on: Pseudotyped HCV GT1b particles (HCVpp), entry into Huh7-high CD81 cells; type: cell-based, HCV GT1b Con1 strain; conditions: Hepatitis C virus, GT1B, 72 h, read-out: HCVpp GT-1b (EC50, μM)
[2] = tested on: Pseudotyped HCV GT1a particles (HCVpp), entry into Huh7-high CD81 cells; type: cell-based, HCV GT1a H77 strain; conditions: Hepatitis C virus, 72 h, read-out: HCVpp GT-1a (EC50, μM)
[3] = tested on: pseudotyped VSV G particles (VSVpp) in Huh7-high CD81 cells; type: cell-based, vesicular stomatitis virus; conditions: Vesicular stomatitis virus, 72 h, read-out: VSVpp (EC50, μM)

Nc1nc(Nc2cc(Cl)c(-c3ccc(OCC4CNC4)cc3)c(Cl)c2)n[nH]1 [Compound 32, N*3*-[4′-(Azetidin-3-ylmethoxy)-2,6-dichloro-biphenyl-4-yl]-1H-[1,2,4]triazole-3,5-diamine; hydrochloride]
EC50 [1]: 0.116 µM | EC50 [2]: 0.006 µM | EC50 [3]: 6.1 µM

CNS(=O)(=O)c1ccc(-c2c(Cl)cc(Nc3n[nH]c(N)n3)cc2Cl)cc1 [Compound 118, 4′-(5-Amino-1H-[1,2,4]triazol-3-ylamino)-2′,6′-dichloro-biphenyl-4-sulfonic acid methylamide]
EC50 [1]: 0.013 µM | EC50 [2]: 0.004 µM | EC50 [3]: 4.24 µM

CC(C)S(=O)(=O)c1ccc(-c2c(Cl)cc(Nc3n[nH]c(N)n3)cc2Cl)cc1 [Compound 122, N-3-[2,6-Dichloro-4′-(propane-2-sulfonyl)-biphenyl-4-yl]-1H-[1,2,4]triazole-3,5-diamine]
EC50 [1]: 0.024 µM | EC50 [2]: 0.004 µM | EC50 [3]: 12.1 µM

Nc1nc(Nc2ccc(-c3ccc(F)c(F)c3)c(Cl)c2)n[nH]1 [Compound 147, N*3*-(2-Chloro-3′,4′-difluoro-biphenyl-4-yl)-1H-[1,2,4]triazole-3,5-diamine]
EC50 [1]: 6.12 µM | EC50 [2]: 0.621 µM | EC50 [3]: 47.2 µM

N#Cc1ccc(-c2c(Cl)cc(Nc3n[nH]c(N)n3)cc2Cl)cc1 [Compound 93, 4′-(5-Amino-1H-1,2,4-triazol-3-ylamino)-2′,6′-dichlorobiphenyl-4-carbonitrile]
EC50 [1]: 0.364 µM | EC50 [2]: 0.015 µM | EC50 [3]: 14.8 µM

N#Cc1ccccc1-c1c(Cl)cc(Nc2n[nH]c(N)n2)cc1Cl [Compound 104, 4′-(5-Amino-1H-[1,2,4]triazol-3-ylamino)-2′,6′-dichloro-biphenyl-2-carbonitrile]
EC50 [1]: 1.28 µM | EC50 [2]: 0.072 µM | EC50 [3]: 17.8 µM

Nc1nc(Nc2cc(Cl)c(-c3ccc(S(=O)(=O)N4CCNCC4)cc3)c(C(F)(F)F)c2)n[nH]1 [Compound 33, N*3*-[2-Chloro-4′-(piperazine-1-sulfonyl)-6-trifluoromethyl-biphenyl-4-yl]-1H-[1,2,4]triazole-3,5-diamine]
EC50 [1]: 0.099 µM | EC50 [2]: 0.019 µM | EC50 [3]: 34.3 µM

Nc1nc(Nc2cc(Cl)c(-c3cccc(Cl)c3)c(Cl)c2)n[nH]1 [Compound 92, N3-(2,3′,6-Trichlorobiphenyl-4-yl)-1H-1,2,4-triazole-3,5-diamine]
EC50 [1]: 0.57 µM | EC50 [2]: 0.034 µM | EC50 [3]: 35.5 µM

CS(=O)(=O)c1ccc(-c2c(Cl)cc(Nc3n[nH]c(N)n3)cc2C(F)(F)F)cc1 [Compound 187, N3-(2-chloro-4′-(methylsulfonyl)-6-(trifluoromethyl)biphenyl-4-yl)-1H-1,2,4-triazole-3,5-diamine]
EC50 [1]: 0.046 µM | EC50 [2]: 0.016 µM | EC50 [3]: 1.58 µM

CS(=O)(=O)Nc1ccc(-c2c(F)cc(Nc3nc(N)n[nH]3)cc2C(F)(F)F)cc1 [Compound 242, N-[4′-(5-Amino-2H-[1,2,4]-triazol-3-ylamino)-6′-fluoro-2′-trifluoromethyl-biphenyl-4-yl]-methanesulfonamide]
EC50 [1]: 0.113 µM | EC50 [2]: 0.061 µM | EC50 [3]: > 10 µM

CNC(=O)c1ccc(-c2c(Cl)cc(Nc3n[nH]c(N)n3)cc2Cl)cc1 [Compound 116, 4′-(5-Amino-1H-[1,2,4]triazol-3-ylamino)-2′,6′-dichloro-biphenyl-4-carboxylic acid methylamide]
EC50 [1]: 0.086 µM | EC50 [2]: 0.002 µM | EC50 [3]: 29.4 µM

COc1cccc(-c2c(Cl)cc(Nc3n[nH]c(N)n3)cc2Cl)c1 [Compound 100, N-3-(2,6-Dichloro-3′-methoxy-biphenyl-4-yl)-1H-[1,2,4]triazole-3,5-diamine]
EC50 [1]: 0.839 µM | EC50 [2]: 0.062 µM | EC50 [3]: 14.3 µM

COc1cc(-c2c(Cl)cc(Nc3n[nH]c(N)n3)cc2C(F)(F)F)ccc1S(=O)(=O)NC(C)(C)C [Compound 179, 4′-(5-amino-1H-1,2,4-triazol-3-ylamino)-N-tert-butyl-2′-chloro-3-methoxy-6′-(trifluoromethyl)biphenyl-4-sulfonamide]
EC50 [1]: 0.02 µM | EC50 [2]: 0.002 µM | EC50 [3]: 8.55 µM

CN(C)S(=O)(=O)c1ccc(-c2c(F)cc(Nc3n[nH]c(N)n3)cc2Cl)cc1 [Compound 34, 4′-(5-Amino-1H-[1,2,4]triazol-3-ylamino)-2′-chloro-6′-fluoro-biphenyl-4-sulfonic acid dimethylamide]
EC50 [1]: 0.122 µM | EC50 [2]: 0.028 µM | EC50 [3]: > 10 µM

NC(=O)c1ccc(-c2c(Cl)cc(Nc3n[nH]c(N)n3)cc2Cl)cc1 [Compound 159, 4′-(5-amino-1H-1,2,4-triazol-3-ylamino)-2′,6′-dichlorobiphenyl-4-carboxamide]
EC50 [1]: 0.164 µM | EC50 [2]: 0.005 µM | EC50 [3]: 4.62 µM

CC(C)(C)OC(=O)N1CCC(S(=O)(=O)c2ccc(-c3c(Cl)cc(Nc4n[nH]c(N)n4)cc3C(F)(F)F)cc2)CC1 [Compound 1, 4-[4′-(5-Amino-1H-[1,2,4]triazol-3-ylamino)-2′-chloro-6′-trifluoromethyl-biphenyl-4-sulfonyl]-piperidine-1-carboxylic acid tert-butyl ester]
EC50 [1]: 0.001 µM | EC50 [2]: 0.014 µM | EC50 [3]: > 10 µM

Nc1nc(Nc2cc(Cl)c(-c3ccc(Cl)cc3)c(Cl)c2)n[nH]1 [Compound 96, N-3-(2,6,4′-Trichloro-biphenyl-4-yl)-1H-[1,2,4]triazole-3,5-diamine]
EC50 [1]: 0.927 µM | EC50 [2]: 0.009 µM | EC50 [3]: 4.27 µM

Nc1nc(Nc2cc(Cl)c(-c3cccc4ccccc34)c(Cl)c2)n[nH]1 [Compound 95, N-3-(3,5-Dichloro-4-naphthalen-1-yl-phenyl)-1H-[1,2,4]triazole-3,5-diamine]
EC50 [1]: 0.229 µM | EC50 [2]: 0.028 µM | EC50 [3]: 24.1 µM

COc1ccc(-c2c(Cl)cc(Nc3n[nH]c(N)n3)cc2C(F)(F)F)cc1S(=O)(=O)N1CCN(C(=O)OC(C)(C)C)CC1 [Compound 166, tert-butyl 4-(4′-(5-amino-1H-1,2,4-triazol-3-ylamino)-2′-chloro-4-methoxy-6′-(trifluoromethyl)biphenyl-3-ylsulfonyl)piperazine-1-carboxylate]
EC50 [1]: 0.005 µM | EC50 [2]: 0.003 µM | EC50 [3]: > 10 µM

Nc1nc(Nc2cc(Cl)c(-c3ccc(F)cc3)c(Cl)c2)n[nH]1 [Compound 286, N3-(2,6-dichloro-4′-fluorobiphenyl-4-yl)-1H-1,2,4-triazole-3,5-diamine]
EC50 [1]: 0.64 µM | EC50 [2]: 0.018 µM | EC50 [3]: 13.6 µM

Nc1nc(Nc2cc(Cl)c(-c3ccc(S(=O)(=O)N[C@H]4C[C@H](O)C4)cc3)c(C(F)(F)F)c2)n[nH]1 [Compound 173, 4′-(5-amino-1H-1,2,4-triazol-3-ylamino)-2′-chloro-N-(trans-3-hydroxycyclobutyl)-6′-(trifluoromethyl)biphenyl-4-sulfonamide]
EC50 [1]: 0.019 µM | EC50 [2]: 0.007 µM | EC50 [3]: > 10 µM

CS(=O)(=O)c1cccc(-c2c(Cl)cc(Nc3n[nH]c(N)n3)cc2Cl)c1 [Compound 114, N-3-(2,6-Dichloro-3′-methanesulfonyl-biphenyl-4-yl)-1H-[1,2,4]triazole-3,5-diamine]
EC50 [1]: 0.069 µM | EC50 [2]: 0.01 µM | EC50 [3]: 18.2 µM

Nc1nc(Nc2cc(Cl)c(-c3ccc(OC[C@@H]4CCCN4)cc3)c(Cl)c2)n[nH]1 [Compound 265, N*3*-[2,6-Dichloro-4′-((S)-1-pyrrolidin-2-ylmethoxy)-biphenyl-4-yl]-1H-[1,2,4]triazole-3,5-diamine]
EC50 [1]: 0.063 µM | EC50 [2]: 0.005 µM | EC50 [3]: 17.9 µM

Nc1nc(Nc2cc(Cl)c(-c3ccc(S(=O)(=O)N4CCCC4)cc3)c(C(F)(F)F)c2)n[nH]1 [Compound 170, N3-(2-chloro-4′-(pyrrolidin-1-ylsulfonyl)-6-(trifluoromethyl)biphenyl-4-yl)-1H-1,2,4-triazole-3,5-diamine]
EC50 [1]: 0.026 µM | EC50 [2]: 0.02 µM | EC50 [3]: 14.1 µM

COc1ccc(-c2c(Cl)cc(Nc3n[nH]c(N)n3)cc2Cl)cc1 [Compound 98, N-3-(2,6-Dichloro-4′-methoxy-biphenyl-4-yl)-1H-[1,2,4]triazole-3,5-diamine]
EC50 [1]: 0.353 µM | EC50 [2]: 0.01 µM | EC50 [3]: 5.25 µM
